Measurements published in patent US7947733B2, “Phosphorylated pyrone analogs and methods” (Limerick BioPharma, priority 2007, dated 2011).

How the values were obtained:
[1] = Stability of Quercetin-3′-O-phosphate in water; assay type: physicochemical; conditions: water at pH 8, 24 hours, ambient temperature
Description: Quercetin-3′-O-phosphate is dissolved in water at about pH 8.

kidney of rats = test: Renal pathology in rats co-administered with quercetin-3′-O-phosphate and tacrolimus; assay type: in vivo, rat
Description: Tissue is removed from the kidney of rats treated with tacrolimus (Prograf®) at 0.5 mg/kg and inert vehicle, and from rats treated with tacrolimus (Prograf®) at 0.5 mg/kg and quercetin-3′-O-phosphate (Q-Phosphate) at 11 mg/kg, 28 mg/kg, and at 114 mg/kg for 25 days. […] The tissue from rats treated with Q-Phosphate and tacrolimus show no vacuoles.

[2] = system: ATPase, Na+/K+, Heart, Pig; test: Secondary toxicity screen (MDS Pharma Services), enzyme assay; assay type: biochemical; conditions: 10 μM
Description: (§1) A secondary pharmacological screening of molecules of interest at a fixed concentration is often practiced in the pharmaceutical industry in order to evaluate the effect of the compound on secondary targets that could result in untoward toxicity in-vivo. These secondary screens are well known in the art and can be carried out by labs which specialize in these tests such as MDS-Panlabs and CEREP. A secondary toxicity screen is performed with Quercetin-3′-O-phosphate at a concentration of 10 μM against 122 targets in enzyme, radioligand binding, and cellular assays by MDS Pharma Services by methods well known in the art. Inhibition is found in only the following targets (percent inhibition at 10 μM in parentheses): ATPase, Na+/K+, Heart, Pig (65%), Nitric Oxide Synthase, Endothelial (eNOS) (72%), Protein Tyrosine Kinase, FGFR2 (94%), Protein Tyrosine Kinase, FGFR1(96%), Protein Tyrosine Kinase, Insulin Receptor (91%), Protein Tyrosine Kinase, (82%), Protein Tyrosine Kinase, ZA70 (ZAP-70) (74%), UDP Glucuronosyltransferase, UGT1A1 (52%), Adenosine A1 (50%), Adrenergic α2A (57%), Dopamine D47 (51%), Peripheral Benzodiazepine Receptor (PBR) (53%), Transporter, Monoamine rabbit (68%), Serotonin (5-Hydroxytryptamine) 5-HT1A (62%).

[3] = Secondary toxicity screen, overall finding; conditions: 10 μM against 122 targets
Description: as §1

degradation seen by NMR [1]: no degradation
Compound: O=c1c(O)c(-c2ccc(O)c(OP(=O)(O)O)c2)oc2cc(O)cc(O)c12 [Quercetin-3′-O-phosphate]
protective effect with respect to the kidneys (kidney of rats; co-administered with tacrolimus): significant protective effect
vacuolation of kidney tissue (kidney of rats; tacrolimus 0.5 mg/kg and Q-Phosphate at 11, 28 and 114 mg/kg, 25 days): no vacuoles
percent inhibition [2]: 65%
toxicity properties (findings of the toxicology screen) [3]: low toxicity properties
